From patent US20080171710A1, “The Redox/Fyn/c-Cbl Pathway” (priority 2007, published 2008)
Where two headings read alike, the source gives them in different places.

Columns and labels:
Fyn [1] = target: T1, Fyn (Rattus norvegicus, UniProt Q62844); type: cell-based
T1 construct: 250 μg of total cell lysates were immunoprecipitated with anti-Fyn antibody; endogenous in cells; host or cells: primary rat O-2A/OPCs
Experimental: Fyn kinase activity was quantified using the Universal Tyrosine Kinase Assay Kit (Takara, Madison, Wis., United States). O-2A/OPCs exposed to different treatments were solubilized with an equal volume of the extraction buffer provided with the kit for 15 min, and the resulting lysates were centrifuged at 13,000×g for 15 min at 4° C.; 250 μg of total cell lysates were immunoprecipitated with anti-Fyn antibody (Santa Cruz Biotechnology). Following immunoprecipitation, Fyn immune complexes were washed four times with extraction buffer, and then Fyn kinase activities of each sample were assayed using the kit according to the manufacturer's instructions.

Erk1/2 = type: cell-based, rat
Experimental: Cells were deprived of PDGF-AA for 5 h before re-exposure to PDGF-AA (10 ng/ml) for 1 h for Western blot or 6 h for luciferase assays of pathway activation. Transient transfection was performed using Fugene6 (Roche, Basel, Switzerland ) transfection solution according to the manufacturer's protocol. For the luciferase assay, cells seeded in 12-well plates were transfected with a reporter plasmid SRE-Luc(firefly) or NF-κB-Luc(firefly) (BD-Clontech, Palo Alto, Calif., United States) and an internal control plasmid pRLSV40-LUC. Analyses of luciferase activity were performed according to the protocol of the Dual Luciferase Assay System (Promega, Madison, Wis., United States), which uses an internal control of Renilla luciferase for quantification, and relative light units were measured using a luminometer.
(§1) Anti-phosphorylated Erk monoclonal, anti-Erk monoclonal, anti-TrkC polyclonal anti-Fyn polyclonal, anti-EGFR polyclonal, anti-c-Met polyclonal, anti-phospho-tyrosine monoclonal, and anti-PDGFRα polyclonal antibodies were obtained from Santa Cruz Biotechnology (Santa Cruz, Calif., United States). Anti-c-Cbl monoclonal antibody was obtained from BD PharMingen (San Diego, Calif., United States). Anti-phosphorylated Akt monoclonal and anti-Akt polyclonal antibodies were obtained from Cell Signaling Technology (Beverly, Mass., United States). Anti-phosphorylated PDGPRα polyclonal antibody was obtained from Biosource (Carlsbad, Calif., United States). The cell culture samples were collected and lysed in RAPI buffer, whereas dissected tissue samples were sonicated in RAPI buffer. Samples were resolved on SDS-PAGE gels and transferred to PVDF membranes (PerkinElmer Life Science. Wellesley, Mass., United States), After being blocked in 5% skim milk in PBS containing 0.1% Tween 20, membranes were incubated with a primary antibody, followed by incubation with an HRP-conjugated secondary antibody (Santa Cruz Biotechnology). Membranes were visualized using Western Blotting Luminol Reagent (Santa Cruz Biotechnology). All analyses of signaling pathway components were conducted in the presence of ligand for the receptor pathway under analysis (either PDGF-AA for PDGFRα, NT-3 or TrkC, HGF for c-Met, or EGF for EGFR).

PDGFRα [2] = experiment: PDGFRα phosphorylation (Western blot, anti-PDGFRα(pY742)); type: cell-based, rat
Description: The cells were then collected and lysed for Western blotting. […] Cells were lysed for Western blot analysis using anti-PDGFRα(pY742) antibody. The membranes were de-probed and then re-probed with antibody against total PDGFRα and anti-β-tubulin antibody. […]
as §1

PDGFRα [3] = type: cell-based, rat; conditions: for effect on MeHg-induced reductions in levels of PDGFRα: together with MeHg; for levels of PDGFRα: tamoxifen (100 nM; time course 4, 12, 24 hours)
PDGFRα [4] = experiment: PDGFR ubiquitylation (immunoprecipitation assay); type: cell-based, rat; conditions: co-exposure with MeHg
Experimental: (§2) For the co-immunoprecipitation assay, anti-c-Cbl monoclonal antibody (BD PharMingen) or anti-PDGFRα polyclonal antibody (Santa Cruz Biotechnology) was added to the pre-cleared cell lysates (250 μg of total protein), and the mixtures were gently rocked for 2 h at 4° C. A total of 30 μl of protein A/G agarose was then added to the mixture followed by rotating at 4° C. overnight. The protein A/G agarose was then spun down and washed thoroughly three times. The precipitates were resolved on an 8% SDS-PAGE gel and then were subjected to Western blot analysis using an anti-p-Tyr (for c-Cbl phosphorylation assay) or ubiquitin (for PDGFR ubiquitylation assay) antibody (Santa Cruz Biotechnology).

c-Cbl [5] = type: cell-based, rat
Experimental: as §2

EGFR = type: cell-based, rat
Description: as §1

TrkC = type: cell-based, rat
Description: as §1

c-Met = type: cell-based, rat
Description: as §1

O-2A/OPCs [6] = experiment: Intracellular ROS / redox state measurement; type: cell-based, rat; conditions: 1 μM Pb or 5 μM paraquat; dyes dihydro-chloromethyl-rosamine or dihydro-calcein-AM
Experimental: Cells were plated in 96-well microplates and grown to about 60% continence. […] Cells were then washed once with HBSS and growth medium to remove free probe. Then, fresh growth medium was added and a baseline fluorescence reading was taken prior to treatment. For NAC pre-treatment. […] Fluorescence was measured in a Wallac 1420 Victor2 multilabel counter (PerkinElmer) using excitation and emission wavelengths of 485 nm and 535 nm, respectively, at different time courses as indicated in the figures. Results are presented as the value change from baseline by the formula (Ftexp−Ftbase)/Ftbase normalized with the control group, where Ftexp=fluorescence at any given time during the experiment in a give well and Ftbase=baseline fluorescence of the same well.

O-2A/OPCs [7] = experiment: Cell death of O-2A/OPCs on exposure; type: cell-based, rat; conditions: MeHg at lower concentrations (not above 50 nM); 1 μM Pb; 5 μM paraquat
Experimental: To generate sufficient numbers of cells for biochemical analysis, cells, were expanded through one to two passages in PDGF+FGF-2 before replating in the presence of PDGF alone. When cells achieved approximately 50% confluence, MeHg, Pb, or paraquat was added to their medium at concentrations indicated. Doses for the toxicants were chosen on the basis of dose-response curves to identify sub-lethal exposure levels, as a reflection of blood and brain toxicant levels of these compounds and, where applicable, on the basis of previous reports. All toxicant concentrations examined were confirmed to cause death of less than 5% of cells over the time course of the experiment.

MDA-MB-231 cell = MDA-MB-231 cell division by BrdU incorporation; type: cell-based; conditions: 20 μM tamoxifen, 48 hours
Experimental: It has been reported that c-Cbl induced down-regulation of EGFR is disabled in cancer cells (Hirsch DS, Shen. Y, Wu WJ, (2006) Cancer Res. Apr 1;66(7):3523-30). Thus, growth and motility inhibition of breast cancer cells by EGFR degradation is correlated with inaetivation of Cdc42. […] Cells were cultured in phenol red-free growth media and exposed to TMX (0, 1 μM, 10 μM, 20 μM and 50 μM) for 48 hours, with or without 1 mM NAC. In FIG. 22C. MDA-MB-231 cell division was analyzed by BrdU incorporation analysis. […] Percentage of Brdu+ cells from DAPI+ cells was determined in each sample.

O-2A/OPCs [8] = experiment: In vitro BrdU incorporation assay; type: cell-based, rat; conditions: TMX 10 nM, 100 nM and 1 μM, 2 days
Experimental: Cell proliferation was assessed by bromodeoxyuridine (BrdU) incorporation and by using the mouse anti-BrdU mAb IgGl (1:100; Sigma) to label dividing cells. Stained cells on cover slips were rinsed two times in 1×PBS, counterstained with 4′6-diamidino-2-phenylindole (DAPI; Molecular Probes, Eugene, Oreg., United States) and mounted on glass slides with Fluoromount (Molecular Probes). Staining against surface proteins was performed on cultures of living cells or on cells fixed with 2% paraformaldehyde. Staining with intracellular antibodies was performed by permeabilizing cells with ice-cold methanol for 4 min or by using 0.5% Triton for 15 mm on 2% parafomaldhyde-fixed cells. Antibody binding was detected with appropriate fluorescent dye-conjugated secondary antibodies at 10 μg/ml (Southern Biotech, Birmingham, Ala., United States) or Alexa Fluor-coupled antibodies at a concentration of 1 μg/ml (Molecular Probes), applied for 20 min. Anti-BrdU monoclonal antibody was obtained from Sigma.

c-Cbl [9] = experiment: c-Cbl protein level after RNAi (Western blot); type: cell-based, rat; conditions: expression of RNAi construct
Description: (§3) Anti-phosphorylated Erk monoclonal, anti-Erk monoclonal, anti-TrkC polyclonal anti-Fyn polyclonal, anti-EGFR polyclonal, anti-c-Met polyclonal, anti-phospho-tyrosine monoclonal, and anti-PDGFRα polyclonal antibodies were obtained from Santa Cruz Biotechnology (Santa Cruz, Calif., United States). Anti-c-Cbl monoclonal antibody was obtained from BD PharMingen (San Diego, Calif., United States). Anti-phosphorylated Akt monoclonal and anti-Akt polyclonal antibodies were obtained from Cell Signaling Technology (Beverly, Mass., United States). Anti-phosphorylated PDGPRα polyclonal antibody was obtained from Biosource (Carlsbad, Calif., United States). The cell culture samples were collected and lysed in RAPI buffer, whereas dissected tissue samples were sonicated in RAPI buffer. […]
(§4) siRNA target sites were selected by scanning the cDNA sequence for AA dinucleotides via siRNA target finder (Ambion, Austin, Tex., United States). Those 19-nucleotide segments that start with G immediately downstream of AA were recorded and then analyzed by BLAST search to eliminate any sequences with significant similarity to other genes. […]

Fyn [10] = experiment: Fyn protein level after RNAi (Western blot); type: cell-based, rat; conditions: expression of RNAi construct
Description: as §3, §4

[11] = 30 nM MeHg, 1 μM Pb, 5 μM paraquat

T1 sequence (Q62844 whole entry): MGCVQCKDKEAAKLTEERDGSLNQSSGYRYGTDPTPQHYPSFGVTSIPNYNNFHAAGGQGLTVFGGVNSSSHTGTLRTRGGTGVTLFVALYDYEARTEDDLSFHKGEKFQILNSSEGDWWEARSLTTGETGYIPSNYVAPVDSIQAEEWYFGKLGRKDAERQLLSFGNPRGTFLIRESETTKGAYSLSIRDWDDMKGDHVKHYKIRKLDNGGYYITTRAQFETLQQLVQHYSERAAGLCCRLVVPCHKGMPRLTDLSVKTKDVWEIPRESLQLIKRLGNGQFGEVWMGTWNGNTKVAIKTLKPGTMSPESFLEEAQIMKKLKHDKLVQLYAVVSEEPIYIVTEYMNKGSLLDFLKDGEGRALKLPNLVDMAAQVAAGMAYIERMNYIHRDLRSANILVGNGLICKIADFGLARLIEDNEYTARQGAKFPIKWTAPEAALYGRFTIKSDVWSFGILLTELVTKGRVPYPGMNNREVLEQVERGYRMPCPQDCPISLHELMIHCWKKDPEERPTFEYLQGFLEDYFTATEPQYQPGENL

Molecule: Cl.N [NH4Cl, ammonium chloride]
- effect on MeHg-induced Fyn activation (Fyn [1]; added 1 h before MeHg): lack of effect
- effect on Aβ(1-42) suppression of PDGF-mediated Erk1/2 phosphorylation (Erk1/2; co-exposure with Aβ(1-42)): not
- effect on MeHg-associated suppression of Erk1/2 phosphorylation (Erk1/2; co-treatment with MeHg): blocked
- effect on MeHg-induced suppression of PDGFRα phosphorylation (PDGFRα [2]; co-exposure with MeHg): protected
- effect on Aβ-induced reduction in PDGFRα levels (PDGFRα [3]; co-exposure with Aβ): blocked
- effect on MeHg-induced reductions in levels of PDGFRα (PDGFRα [3]): blocked
- levels of ubiquitylated PDGFRα in MeHg-treated cells (PDGFRα [4]): increased levels of ubiquityiated receptor
- effect on MeHg-induced c-Cbl phosphorylation (c-Cbl [5]; added 1 h before MeHg): lack of effect
- effect on Aβ-induced increase in phosphorylated c-Cbl (c-Cbl [5]; co-exposure with Aβ): not blocked

Molecule: C[n+]1ccc(-c2cc[n+](C)cc2)cc1 [paraquat]
- levels of EGFR after toxicant exposure (EGFR; MeHg, Pb or paraquat): also reduced
- levels of TrkC after toxicant exposure (TrkC; MeHg, Pb or paraquat): neither Pb or paraquat caused a reduction
- levels of c-Met after toxicant exposure (c-Met; MeHg, Pb or paraquat): also reduced
- Fyn activation after toxicant exposure (Fyn [1]; [11]): activation of Fyn
- PDGF-induced Erk1/2 phosphorylation after toxicant exposure (Erk1/2; 30 nM MeHg 24 h, 1 μM Pb, 5 μM paraquat): reduced levels of Erk1/2 phosphorylation
- phosphorylation of PDGFRα after toxicant exposure (PDGFRα [2]; [11]): reduced
- total levels of PDGFRα after toxicant exposure (PDGFRα [3]; MeHg 30 nM, 1 μM Pb, 5 μM paraquat): reduced
- cells more oxidized (intracellular redox state) (O-2A/OPCs [6]): approximately 20%
- c-Cbl phosphorylation after toxicant exposure (c-Cbl [5]; [11]): increased phosphorylation of c-Cbl
- cell death at the concentrations used (O-2A/OPCs [7]): did not cause cell death

Molecule: CC/C(=C(\c1ccccc1)c1ccc(OCCN(C)C)cc1)c1ccccc1 [tamoxifen]
- levels of EGFR (EGFR; TMX exposure): decreased
- levels of Trk (non-c-Cbl target) (TrkC; TMX treatment): no differences
- levels of c-Met (c-Met; TMX exposure): decreased
- levels of phosphorylated PDGFRα (PDGFRα [2]; TMX exposure 4, 12, 24 hours): parallel reduction over time
- levels of PDGFRα (PDGFRα [3]): causes reductions
- levels of PDGFRα (PDGFRα [3]; listed as TMX): parallel reduction over time
- c-Cbl activation (c-Cbl [5]; 100 nM tamoxifen): activates
- reduction in cell division (MDA-MB-231 cell): ~10%
- O-2A/OPC division (O-2A/OPCs [8]): Suppression

B1: c-Cbl RNAi: c-Cbl siRNA construct, SEQ ID NO: 3 and 4 (nucleic acid)
chain 1: GTGCATCCCATCAGTTCTGTTCAAGAGACAGAACTGATGGGATGCACTTTTTT
chain 2: AATTAAAAAAGTGCATCCCATCAGTTCTGTCTCTTGAACAGAACTGATGGGATGCACGGCC
modifications: expressed or natural sequence
- effect on MeHg-induced reductions in levels of PDGFRα (PDGFRα [3]): protected
- effect on Pb- and paraquat-induced reductions in levels of PDGFRα (PDGFRα [3]; together with Pb (1 μM) or paraquat (5 μM)): prevented
- levels of c-Cbl protein (c-Cbl [9]): caused a reduction

B2: Fyn-Scr-RNAi: scrambled negative control for Fyn RNAi, SEQ ID NO: 5 and 6 (nucleic acid)
chain 1: CCCGGGTTTCAATATATTTCTCAAGAGAAAATATATTGAAACCCGGGTTTTTT
chain 2: AATTAAAAAACCCGGGTTTCAATATATTTTCTCTTGAGAAATATATTGAAACCCGGGGGCC
- effect on MeHg-induced reductions in levels of PDGFRα (PDGFRα [3]): not
- levels of Fyn protein (Fyn [10]): had no effect
